Reference: ChEMBL document CHEMBL3044728, “Synthesis and biological activity of new (E)-alpha-(Methoxyimino)benzeneacetate derivatives containing a substituted pyrazole ring” (2010)

What was measured:
Format in all cases: functional
[1] = tested on: Phytophthora infestans; assay: Antifungal activity against Phytophthora infestans assessed as inhibition at 25 mg/L relative to control
[2] = tested on: Pyricularia oryzae; assay: Antifungal activity against Magnaporthe oryzae assessed as inhibition at 0.92 mg/L relative to control
[3] = tested on: Pyricularia oryzae; assay: Antifungal activity against Magnaporthe oryzae assessed as inhibition at 25 mg/L relative to control
[4] = tested on: Blumeria graminis; assay: Antifungal activity against Blumeria graminis assessed as inhibition at 1.56 mg/L relative to control
[5] = tested on: Blumeria graminis; assay: Antifungal activity against Blumeria graminis assessed as inhibition at 6.25 mg/L relative to control
[6] = tested on: Blumeria graminis; assay: Antifungal activity against Blumeria graminis assessed as inhibition at 400 mg/L relative to control
[7] = tested on: Pseudoperonospora cubensis; assay: Antifungal activity against Pseudoperonospora cubensis assessed as inhibition at 25 mg/L relative to control
[8] = tested on: Phytophthora infestans; assay: Antifungal activity against Phytophthora infestans assessed as inhibition at 0.92 mg/L relative to control
[9] = tested on: Pseudoperonospora cubensis; assay: Antifungal activity against Pseudoperonospora cubensis assessed as inhibition at 400 mg/L relative to control

Row | Structure (SMILES) | inhibition at 25 µg/mL [1] | inhibition at 0.92 µg/mL [2] | inhibition at 25 µg/mL [3] | inhibition at 1.56 µg/mL [4] | inhibition at 6.25 µg/mL [5] | inhibition at 400 µg/mL [6] | inhibition at 25 µg/mL [7] | inhibition at 0.92 µg/mL [8] | inhibition at 400 µg/mL [9]
1 | CCOc1ccc(-c2nn(C)c(OCc3ccccc3/C(=N\OC)C(=O)NC)c2C)cc1 | 100% | 100% | 100% | 70% | 100% | 100% | 20% | 50% | 98%
2 | CCc1ccc(-c2nn(C)c(OCc3ccccc3/C(=N\OC)C(=O)NC)c2C)cc1 | 100% | 0% | 100% | 90% | 100% | 100% |  | 80% | 50%
3 | CNC(=O)/C(=N/OC)c1ccccc1COc1c(C)c(-c2ccc(C)cc2)nn1C | 100% |  | 0% | 40% | 95% | 100% |  | 100% | 65%
4 | CNC(=O)/C(=N/OC)c1ccccc1COc1cc(-c2ccccc2Cl)nn1C | 100% |  | 0% | 55% | 90% | 100% | 40% | 0% | 90%
5 | CNC(=O)/C(=N/OC)c1ccccc1COc1c(C)c(-c2ccc(Cl)cc2)nn1C | 100% |  | 0% | 85% | 100% | 100% | 40% |  | 80%
6 | CNC(=O)/C(=N/OC)c1ccccc1COc1cc(-c2ccc(OC)cc2)nn1C | 100% | 80% | 100% |  | 0% | 100% | 30% | 0% | 98%
7 | CNC(=O)/C(=N/OC)c1ccccc1COc1cc(-c2ccc(C(C)(C)C)cc2)nn1C | 100% | 50% | 100% |  |  | 0% | 0% | 50% | 80%
8 | CO/N=C(/C(=O)OC)c1ccccc1COc1c(C)c(-c2ccc(OCC(F)(F)F)cc2)nn1C | 50% | 80% | 100% | 15% | 70% | 100% | 0% |  | 80%
9 | CO/N=C(/C(=O)OC)c1ccccc1COc1c(C)c(-c2ccc(C(C)(C)C)cc2)nn1C | 0% |  | 50% |  |  | 70% |  |  | 40%
10 | CO/N=C(/C(=O)OC)c1ccccc1COc1c(C)c(-c2ccc(C)cc2)nn1C | 100% |  | 50% | 100% | 100% | 100% | 60% | 100% | 95%
11 | CO/N=C(/C(=O)OC)c1ccccc1COc1cc(-c2ccccc2OC)nn1C | 0% | 50% | 100% | 40% | 90% | 100% |  |  | 50%
12 | CO/N=C(/C(=O)OC)c1ccccc1COc1cc(-c2ccc(OC)cc2)nn1C | 100% |  | 0% |  | 10% | 100% | 50% | 0% | 98%
13 | CO/N=C(/C(=O)OC)c1ccccc1COc1cc(-c2ccc(C(C)(C)C)cc2)nn1C | 100% | 80% | 100% |  |  | 0% | 0% | 60% | 95%
